From patent EP1911452A1, “Silicon-derivates for PET-Imaging” (Bayer Schering Pharma Aktiengesellschaft, priority 2006, dated 2008) come the findings set out here.

This data set can be described thus: Hydrolytic stability: time dependent degree of hydrolysis of the 19F fluorosilane to the hydroxy compound at physiological pH (7.0). It counts as physicochemical. To be noted: ratio of hydrolytic halflife to radioactive halflife of the 18-F isotope (1.83 hours). How it is done:
The time dependent degree of hydrolysis of compounds of formula I in which X is a fluorine atom of isotope 19 to compounds of formula I in which X is a hydroxy group was determined at physiological pH (7.0). From the kinetics the hydrolytic halflife (t1/2) measured in hours [h] of compounds of formula I in which X is a fluorine atom of isotope 19 were calculated (Table 1, column 2).
The ratio of the hydrolytic halflifes of compounds of formula I in which X is a fluorine atom of isotope 19 and the radioactive halflife of the 18-F isotope (1.83 hours) is defined as relative stability (Table 1, column 3).
After 6 hours 90% of the 18-F isotope have been decayed.
Compounds of formula I in which X is a fluorine atom of isotope 18 are considered as useful for PET applications if the relative stability of their analogs bearing a fluorine atom of isotope 19 exceed a factor of four and if at least 50% of these compounds remain intact after 6 hours under hydrolytic conditions at pH 7.
On to `CC(C)[Si](F)(c1ccc(COC2CCCCO2)cc1)C(C)C` (racemic) [Compound 3a - F, (RS)-Fluoro-diisopropyl-[4-(tetrahydro-pyran-2-yloxymethyl)-phenyl]-silane], for which the rel. stability was found to be 27.0.
The figure for `CC(C)[Si](F)(c1cccc(CCOC2CCCCO2)c1)C(C)C` (racemic) [Compound 3e - F, (RS)-Fluoro-diisopropyl-{3-[2-(tetrahydro-pyran-2-yloxy)-ethyl]-phenyl}-silane] is more than 54.6; for `F[Si](c1ccccc1)(c1ccccc1)c1ccc(CCOC2CCCCO2)cc1` (racemic) [Compound 3f - F, (RS)-Fluoro-diphenyl-{4-[2-(tetrahydro-pyran-2-yloxy)-ethyl]-phenyl}-silane] it is 0.04; for `CC(C)C[Si](F)(CC(C)C)c1ccc(COC2CCCCO2)cc1` (racemic) [Compound 3g - F, (RS)-Fluoro-diisobutyl-[4-(tetrahydro-pyran-2-yloxymethyl)-phenyl]-silane] it is 4.5.
In the case of `CC(C)[Si](F)(c1ccc(C(=O)O)cc1)C(C)C` [Compound 5a - F, 4-(Fluoro-diisopropyl-silanyl)-benzoic acid] it was 6.1.
Regarding `CC(C)C[Si](F)(CC(C)C)c1ccc(C(=O)O)cc1` [Compound 5g - F, 4-(Fluoro-diisobutyl-silanyl)-benzoic acid], the rel. stability came out at 1.9.
Take `CC(C)C[Si](F)(CC(C)C)c1ccc(CC(=O)O)cc1` [Compound 5h - F, [4-(Fluoro-diisobutyl-silanyl)-phenyl]-acetic acid]: the rel. stability stood at 4.8.
The figure for `CC(C)C[Si](F)(CCCCC(=O)Nc1ccccc1)CC(C)C` [Compound 30a - 1F, 5-(Fluoro-diisobutyl-silanyl)-pentanoic acid phenylamide] is 7.5.
